This is an account of results in ChEMBL document CHEMBL1145259, “Arylacetamide kappa opioid receptor agonists with reduced cytochrome P450 2D6 inhibitory activity” (Bioorg Med Chem Lett, 2005).

Data set [1] addresses T1, Delta-type opioid receptor (Homo sapiens, UniProt P41143). Kind of data set: Percent inhibition against human Opioid receptor delta 1 using [3H]diprenorphine as radio ligand. To be noted: concentration not given here.
In a further data set the target is Cytochrome P450 2D6 (Homo sapiens, UniProt P10635). The experiment in a line: Inhibition of cytochrome P450 2D6 was determined using MAMC (7-methoxy-4-aminomethyl-coumarin) as substrate. The data set is classed as ADME.
In data set [2] the target is T2, Mu-type opioid receptor (Homo sapiens, UniProt P35372). The experiment in a line: Percent inhibition against human Opioid receptor mu 1 using [3H]diprenorphine as radio ligand. Also noted: concentration or dose not given beside the values. To be noted: concentration not given here.
Data set [3] has as its target T2, Mu-type opioid receptor. Kind of data set: Inhibitory constant against human Opioid receptor mu 1 using [3H]diprenorphine as radio ligand.
Data set [4] has as its target T1, Delta-type opioid receptor. The experiment in a line: Inhibitory constant against human Opioid receptor delta 1 using [3H]diprenorphine as radio ligand.
The target of the next data set is CYP2D6 (Homo sapiens, UniProt P10635). The experiment in a line: Inhibition of cytochrome P450 2D6 activity was measured by the inhibition of HAMC production at the concentration of 10 uM. The class given is ADME.
The target of data set [5] is T1, Delta-type opioid receptor. The experiment in a line: Percent inhibition constant against human Opioid receptor delta 1 using [3H]diprenorphine as radio ligand. To be noted: concentration not given here.

T2 sequence (P35372 whole entry): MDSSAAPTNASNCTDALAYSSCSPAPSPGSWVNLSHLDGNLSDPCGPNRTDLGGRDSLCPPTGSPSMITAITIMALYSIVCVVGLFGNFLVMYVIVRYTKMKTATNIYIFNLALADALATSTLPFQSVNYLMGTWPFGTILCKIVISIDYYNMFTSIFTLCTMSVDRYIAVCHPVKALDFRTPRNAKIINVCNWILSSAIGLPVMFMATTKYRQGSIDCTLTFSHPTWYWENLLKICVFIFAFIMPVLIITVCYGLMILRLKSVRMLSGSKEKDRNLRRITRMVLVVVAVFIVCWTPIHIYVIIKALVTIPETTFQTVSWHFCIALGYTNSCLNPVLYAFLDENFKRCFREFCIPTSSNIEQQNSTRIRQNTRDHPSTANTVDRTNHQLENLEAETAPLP
T1 sequence (P41143 whole entry): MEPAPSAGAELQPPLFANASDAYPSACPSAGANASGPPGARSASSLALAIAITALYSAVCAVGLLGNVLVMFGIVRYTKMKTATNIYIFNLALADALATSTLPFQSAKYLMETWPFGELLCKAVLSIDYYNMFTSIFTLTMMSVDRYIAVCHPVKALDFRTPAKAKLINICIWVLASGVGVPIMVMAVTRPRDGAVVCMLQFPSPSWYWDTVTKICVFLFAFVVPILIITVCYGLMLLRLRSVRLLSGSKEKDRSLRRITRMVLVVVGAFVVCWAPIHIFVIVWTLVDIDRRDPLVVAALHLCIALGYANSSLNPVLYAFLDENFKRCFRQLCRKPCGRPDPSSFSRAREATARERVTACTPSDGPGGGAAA
Sequence of CYP2D6 (P10635 whole entry): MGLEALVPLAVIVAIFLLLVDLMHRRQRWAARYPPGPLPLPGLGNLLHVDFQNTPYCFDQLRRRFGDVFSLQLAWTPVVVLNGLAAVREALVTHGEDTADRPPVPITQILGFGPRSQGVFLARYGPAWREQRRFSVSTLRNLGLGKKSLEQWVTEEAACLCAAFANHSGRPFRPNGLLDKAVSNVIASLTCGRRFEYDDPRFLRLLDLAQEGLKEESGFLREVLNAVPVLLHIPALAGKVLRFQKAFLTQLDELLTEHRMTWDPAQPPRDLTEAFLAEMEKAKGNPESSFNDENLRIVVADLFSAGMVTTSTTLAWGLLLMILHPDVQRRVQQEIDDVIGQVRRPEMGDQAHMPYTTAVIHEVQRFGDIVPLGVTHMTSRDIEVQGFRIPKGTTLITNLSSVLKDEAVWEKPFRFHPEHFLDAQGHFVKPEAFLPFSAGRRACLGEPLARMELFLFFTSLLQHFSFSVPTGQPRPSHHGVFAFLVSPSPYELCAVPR
Sequence of Cytochrome P450 2D6 (P10635 whole entry): as above

For orientation: inhibition means the drop in the measured response relative to a control, in per cent. Broadly, the IC50 is the concentration that gives 50% inhibition. Turning to `CN(C(=O)Cc1ccc(CN)cc1)[C@H](CN1CCCC1)c1ccccc1`, the inhibition in data set [1] was 17%; on Mu-type opioid receptor [2] it was 41%. This compound also showed an IC50 at Cytochrome P450 2D6 of 326 nM.
The term Ki denotes the dissociation constant of the complex between target and ligand, obtained from inhibition or displacement. Turning to `CN(C(=O)Cc1ccc(NS(C)(=O)=O)cc1)[C@H](CN1CC[C@H](O)C1)c1ccccc1`, the Ki turned out to be 105 nM on Mu-type opioid receptor [3] and 177 nM in data set [4]. On Cytochrome P450 2D6, this compound displayed an IC50 of 5530 nM.
As for `CN(C(=O)Cc1ccccc1)[C@H](CN1CCCC1)c1ccccc1`, at Cytochrome P450 2D6, the IC50 turned out to be 46 nM.
The compound `CCS(=O)(=O)NCc1ccc(CC(=O)N(C)[C@H](CN2CC[C@H](O)C2)c2ccccc2)cc1` came in with a Ki at Mu-type opioid receptor [3] of 1030 nM. Also, the inhibition at 10 µM on CYP2D6 was 31%.
As for `CN(C(=O)Cc1ccccc1CNS(C)(=O)=O)[C@H](CN1CCCC1)c1ccccc1`, the figures for the Ki (at Mu-type opioid receptor [3]; in data set [4]) were 570 nM and 898 nM, respectively. For the same compound, the IC50 against Cytochrome P450 2D6 is 295 nM.
With `CN(C(=O)Cc1ccc(CNS(C)(=O)=O)cc1)[C@H](CN1CC[C@H](O)C1)c1ccccc1`, the Ki is 151 nM at Mu-type opioid receptor [3] and 167 nM in data set [4]. The same compound had an inhibition at 10 µM at CYP2D6 of 25%.
With `CN(C(=O)Cc1ccc(CNS(=O)(=O)Cc2ccccc2)cc1)[C@H](CN1CC[C@H](O)C1)c1ccccc1`, the affinity in data set [4] corresponds to a Ki of 173 nM. This compound also showed a 50% inhibitory concentration (IC50) against Cytochrome P450 2D6 of 5700 nM.
Consider `CC(=O)NCc1ccccc1CC(=O)N(C)[C@H](CN1CCCC1)c1ccccc1`, for which the Ki on Mu-type opioid receptor [3] was 1240 nM; in data set [4] it was 900 nM. The compound also gave an IC50 on Cytochrome P450 2D6 of 35 nM.
In the case of `CC(=O)NCc1cccc(CC(=O)N(C)[C@H](CN2CCCC2)c2ccccc2)c1`, the inhibition in data set [1] is 15%; against Mu-type opioid receptor [2] it was 21%. This compound also registered an IC50 on Cytochrome P450 2D6 of 600 nM.
Compound `CN(C(=O)Cc1ccc(CCNS(C)(=O)=O)cc1)[C@H](CN1CC[C@H](O)C1)c1ccccc1` showed a Ki in data set [4] of 107 nM. Moreover, on CYP2D6, the inhibition at 10 µM amounted to 48%.
For the compound `CN(C(=O)Cc1ccc2c(c1)CN(S(C)(=O)=O)C2)[C@H](CN1CCCC1)c1ccccc1`, the inhibition constant Ki at Mu-type opioid receptor [3] stood at 74 nM; in data set [4], 1500 nM. Also, the IC50 at Cytochrome P450 2D6 amounted to 1040 nM.
Turning to `CC(C)S(=O)(=O)NCc1ccc(CC(=O)N(C)[C@H](CN2CC[C@H](O)C2)c2ccccc2)cc1`, the inhibition at 10 µM on CYP2D6 amounted to 27%.
`CCCS(=O)(=O)NCc1ccc(CC(=O)N(C)[C@H](CN2CC[C@H](O)C2)c2ccccc2)cc1`: the Ki came to 1050 nM on Mu-type opioid receptor [3] and 124 nM in data set [4]. The compound further had an inhibition at 10 µM against CYP2D6 of 27%.
Turning to `CN(C(=O)Cc1ccc(CNS(=O)(=O)c2ccc(F)cc2)cc1)[C@H](CN1CC[C@H](O)C1)c1ccccc1`, the figures for the Ki (at Mu-type opioid receptor [3]; in data set [4]) were 1080 nM and 63 nM, respectively. The compound also had an IC50 against Cytochrome P450 2D6 of 5790 nM.
Take `CN(C(=O)Cc1ccc(CCCNS(C)(=O)=O)cc1)[C@H](CN1CC[C@H](O)C1)c1ccccc1`: at CYP2D6, the inhibition at 10 µM is 46%.
Consider `CCCCS(=O)(=O)NCc1ccc(CC(=O)N(C)[C@H](CN2CC[C@H](O)C2)c2ccccc2)cc1`, for which the Ki is 1050 nM at Mu-type opioid receptor [3] and 167 nM in data set [4]. The compound also had a concentration for half-maximal inhibition (IC50) at Cytochrome P450 2D6 of 7890 nM.
The compound `CN(C(=O)Cc1cccc(CN)c1)[C@H](CN1CCCC1)c1ccccc1` gave a Ki at Mu-type opioid receptor [3] of 2300 nM. In data set [1], this compound returned an inhibition of 1.4%. At Cytochrome P450 2D6, this compound yielded an IC50 of 107 nM.
As to `CNC(=O)NCc1ccc(CC(=O)N(C)[C@H](CN2CCCC2)c2ccccc2)cc1`, the Ki in data set [4] was determined as 1300 nM. This compound had an IC50 at Cytochrome P450 2D6 of 1220 nM. In addition, on Mu-type opioid receptor [2], the inhibition is 43%.
For `CN(C(=O)Cc1ccc(CNS(C)(=O)=O)cc1)[C@H](CN1CCCC1)c1ccccc1`, the Ki at Mu-type opioid receptor [3] amounted to 440 nM; in data set [4] it was 1130 nM. The inhibition at 10 µM against CYP2D6 stood at 45%.
In the case of `CC(=O)NCc1ccc(CC(=O)N(C)[C@H](CN2CCCC2)c2ccccc2)cc1`, the inhibition in data set [1] came to 0%; at Mu-type opioid receptor [2], 26%. The same compound came in with an IC50 against Cytochrome P450 2D6 of 1110 nM.
As to `CN(C(=O)Cc1ccc(CNS(=O)(=O)c2ccccc2)cc1)[C@H](CN1CC[C@H](O)C1)c1ccccc1`, at Cytochrome P450 2D6, the IC50 was found to be 4340 nM.
With `Cc1ccc(S(=O)(=O)NCc2ccc(CC(=O)N(C)[C@H](CN3CC[C@H](O)C3)c3ccccc3)cc2)cc1`, in data set [4], affinity was put at a Ki of 27 nM. Further, the IC50 on Cytochrome P450 2D6 was found to be 5650 nM.
On to `CN(C(=O)Cc1ccc(CNS(=O)(=O)Cc2cccs2)cc1)[C@H](CN1CC[C@H](O)C1)c1ccccc1`, for which the Ki turned out to be 1060 nM at Mu-type opioid receptor [3] and 55 nM in data set [4]. On Cytochrome P450 2D6, this compound yielded an IC50 of 4780 nM.
In the case of `CN(C(=O)Cc1cccc(CNS(C)(=O)=O)c1)[C@H](CN1CCCC1)c1ccccc1`, the IC50 on Cytochrome P450 2D6 was 1820 nM.
As to `CN(C(=O)Cc1ccc(Cl)c(Cl)c1)[C@H](CN1CCCC1)c1ccccc1` [ICI-199,441], 26 nM corresponded to half-maximal inhibition against Cytochrome P450 2D6 (IC50).
For `CN(C(=O)Cc1ccccc1CN)[C@H](CN1CCCC1)c1ccccc1`, the inhibition was 37% in data set [5] and 29% at Mu-type opioid receptor [2]. The compound further showed an IC50 against Cytochrome P450 2D6 of 18 nM.
